The text below walks through data of patent US9828588B2, “Methods and compositions for producing active vitamin K-dependent proteins” (The University of North Carolina at Chapel Hill, priority 2005, dated 2017).

The subject of this assay is P450 2C9. Description: Average warfarin maintenance dose in patients by P450 2C9 genotype. It counts as in vivo, human. The note with it: patients heterozygous for P450 2C9*3, n=8. From the text: Subjects were obtained from the UNC Coagulation Clinic in the Ambulatory Care Center. Informed consent was obtained by a trained genetic counselor. Subjects not fluent in English were excluded because of the lack of translators and the requirement for consent.
The difference of average dose between different genotypes was compared by analysis of variance (ANOVA) using SAS version 8.0 (SAS, Inc., Cary, N.C.). A two-sided p value less than 0.05 was considered significant.
Each marker was first analyzed independently.
SAS was used first to do a repeated procedure in which a series of factors (race, gender, smoking history, hepatic diseases, SNPs at cytochrome […] gene, etc.) were examined to identify factors, excluding VKOR SNPs, which might affect dosage.

`CC(=O)CC(c1ccccc1)c1c(O)c2ccccc2oc1=O` (stereo not shown) [warfarin] showed an average warfarin dose of 22.4±4.34 mg per week.
